In paper PMC11561622, “Evaluating Antimalarial Proteasome Inhibitors for Efficacy in Babesia Blood Stage Cultures” (ACS Omega, 2024):
Entries after “also recorded” stand apart in the source; their conditions may differ.

Legend:
[1] = tested on: catalytic subunits of Bd20S; assay: Activity-based probe labeling (Me4BodipyFL-Ahx3Leu3VS) of Bd20S catalytic subunits; type: binding, Babesia divergens; conditions: lysates from CFZ- and CPB-treated cells, vs vehicle
[2] = tested on: B. divergens proteasome β5 subunit; type: biochemical, Babesia divergens
Method: B. divergens and B. microti protein lysates were prepared from infected red blood cells. Briefly, red blood cells were lysed with 0.15% saponin prepared in 1× Phosphate-Buffered Saline (PBS), pH 7.5, to release intact parasites. Parasites were washed with 1× PBS, pH 7.5 (PBS), by centrifugation and the pellets were stored at −80 °C in PBS plus 20% glycerol. To prepare protein lysates for enzymatic assays, parasites were thawed and transferred to 50 mM HEPES (pH 7.5), 10 μM E64, 100 μM AESBF, 1 μM Pepstatin A, and 1 mM DTT (all Sigma-Aldrich). Cells were ruptured by ultrasonication with an amplitude of 0.5 for 3 cycles of 15 s on ice. To prepare protein lysates for activity-based probing and proteasome purification, parasites were thawed and transferred to 20 mM Tris-HCl, pH 7.5, 1 mM DTT, 10 μM E64, and 5% glycerol. The lysate was sonicated on ice for 3 times and clarified by centrifugation at 17,000g for 10 min at 4 °C.
To further improve the detection of the β5 subunit activity with the Suc-LLVY-amc substrate of the Babesia proteasome as previously published,[27] we aimed to further optimize assay conditions. However, to reduce the number of experimental animals in the study, assay conditions were optimized using protein lysates of B. divergens, which can be grown in vitro, instead of B. microti lysates, which need to be maintained in mice. […] Assay conditions were optimized in 50 μL volumes in round-bottom 96-well plates. Two assay buffers were evaluated. Buffer A, as described previously,[27] consists of 20 mM HEPES, pH 8, 1 mM ATP, and 1 μM E64, while Buffer B consists of 50 mM HEPES, pH 7.5, 5 mM ATP, 10 μM E64, 100 μM AESBF, 1 μM Pepstatin A, and 1 mM DTT. Buffers A and B were tested with either 0.02% SDS or 6.67 ng of PA28 as activators of the proteasome activity. […] The release of the AMC fluorophore was monitored at 37 °C in a Synergy HTX multimode reader (BioTek) with excitation and emission wavelengths set to 340 and 460 nm, respectively.
Proteasome activity in B. microti and B. divergens lysates was screened in the presence of carmaphycin B (CPB) and numerous analogs that were previously designed to target the P. falciparum 20S proteasome.[30] A pool of lysates was made for each species to ensure that equal amounts of the lysates were used in each inhibition reaction. Inhibitors were transferred to black 384-well plates with the ATS acoustic transfer system (ATS-100, Biosera). Lysates were incubated with inhibitors for 30 min at room temperature and activity was assayed in 30 μL reactions. Each reaction mixture contained 5 μL of Babesia lysate, 10 nL of the inhibitor (final concentration of 133.33 nM), and 25 μL of assay buffer with 25 μM substrate succinyl-Leu-Leu-Val-Tyr-7-amido-4-methylcoumarin (Suc-LLVY-amc). The release of the AMC fluorophore was monitored at 37 °C in a Synergy HTX multimode reader (BioTek Instruments, Winooski, VT) with excitation and emission wavelengths set to 340 and 460 nm, respectively. Activity was quantified as RFU per second and normalized to the DMSO control reactions.

[3] = tested on: endogenous polyubiquitinated proteins in B. divergens; assay: Western blot of polyubiquitinated proteins in treated B. divergens cultures; type: cell-based, Babesia divergens; conditions: 200 nM, 24 h, anti-Ubiquitin K48 western blot, vs 0.1% DMSO
Method: To assess the on-target effect of proteasome inhibition, protein lysates of B. divergens isolated from bovine erythrocyte cultures were evaluated for the accumulation of polyubiquitinated proteins. The B. divergens cultures underwent two 12 h treatments (totaling 24 h) with 200 nM of the inhibitor in culture medium. Parasites were released from RBCs and protein lysates were prepared as described above. The resulting samples were then centrifuged at 15,000g for 15 min at 4 °C and protein concentrations of the resulting supernatant were determined using Bradford assay.[29] Samples were prepared for SDS-PAGE in reducing Laemmli buffer supplemented with β-mercaptoethanol. Ten micrograms of protein was applied per lane and proteins were separated on gradient (4–15%) Criterion TGX Stain-Free Precast gels (BioRad) in Tris-Glycine-SDS running buffer (25 mM Tris, 192 mM glycine, and 0.1% (w/vol) SDS, pH 8.3) and visualized using TGX stain-free chemistry (BioRad). […] After washing (3 × 10 min) in PBS-T, signals were detected using Clarity Max Western ECL substrate (BioRad), visualized using a ChemiDoc MP imager, analyzed, and adjusted using the ImageLab freeware (BioRad).

[4] = tested on: HepG2 cells; conditions: previously reported; cited from earlier work

CCCCCC(=O)N[C@H](C(=O)N[C@@H](CCS(C)(=O)=O)C(=O)N[C@@H](CC(C)C)C(=O)[C@@]1(C)CO1)C(C)C [carmaphycin B]
labeling of catalytic subunits by activity-based probe [1]: significantly reduced
inhibition of β5 activity in B. divergens lysate (in words) [2]: to the same extent as CFZ; also recorded: completely inactivate
accumulation of endogenous polyubiquitinated proteins [3]: marked accumulation
EC50 [4]: 12.6 ± 1.4 nM
